According to patent US11052162B2, “Liposomal gadolinium (GD) contrast agent “NMRX” for T1-MRI” (TEXAS CHILDREN'S HOSPITAL, priority 2016, dated 2021):

Legend:
[1] = Relaxivity (r1) by variable flip angle technique at 9.4 T; type: physicochemical
Protocol: (§1) While the liposomal contrast agent has slow clearance, Multihance® clears rapidly, and timing the image acquisition is critical. We therefore opted to use the DCE-MRI technique to collect a series of images, from which the optimal time point could be selected. DCE-MRI experiments were performed on a horizontal bore 9.4 T Bruker Avance III, 20 cm bore Biospec Spectrometer (Karlsruhe, Germany) with a micro-imaging probe capable of generating gradients of (1000 mT/m). Prior to the in vivo study, the relaxivity of both agents was measured using the variable flip angle technique described in Appendix A. Similarly, the baseline relaxation rates, T1(O), for placenta and fetus were measured using the same pulse sequence as described in Appendix A.

[2] = Gadolinium assay by ICP-MS of placentae and fetuses; type: in vivo, mouse
Protocol: (§2) 25 female Balb/c mice (7-9 weeks old; average weight 26 grams before pregnancy) were used in this study. Animals were mated with same strain males. The day when a vaginal copulation plug was detected was designated as day 0.5. Pregnant mice were imaged at day 16.5±1. Mice were sacrificed (under the institutional euthanasia protocol) immediately after MRI data collection (except for two mice that received the liposomal Gd agent, and were maintained alive for 72 hours, allowing additional time for possible transport of Gd to the fetus, and then sacrificed). Mice were dissected and the placentae and fetuses removed and transferred individually to 2 ml polycarbonate vials for storage at −81° C. These placentae and fetuses were analyzed using ICP-MS for the direct measurement of Gd concentration.
Wet tissue from placentae or pups was chopped with a scalpel into ˜3 mm pieces. A known mass of chopped tissue was then dissolved in 2-4 ml of concentrated nitric acid (14N) and heated at 100° C. till tissue completely dissolved. (Usually, about 30-45 minutes at room temperature and 3 minutes at 100° C. were sufficient). The acid solution was diluted with 10 ml of DI water, causing some precipitation of organic material. The material was centrifuged at 3000 g for 5-10 minutes, and the supernatant used for analysis. Serial dilutions over a 10^6 range were then made, and spiked with an internal standard of Bi 10 parts per billion (ppb) in 2% nitric acid. ICP-MS analysis was conducted on a Varian 810 ICP-MS system, using the manufacturer's recommended protocol for Gd assay. A spike-recovery study on blank tissue yielded linear response with >90% recovery over a range of 0-900 ppb and >96% response over a range of 0-50 ppb.

pregnant Balb/c mice = assay: Blinded reader rating of placental visibility in DCE-MRI; type: in vivo, mouse
Protocol: The trans-placental permeability of liposomal gadolinium (Gd) nanoparticle contrast agents was evaluated in a pregnant mouse model. Pregnant Balb/c mice at 16.5 (±1) days of gestation were imaged using a 3D Spoiled Gradient Echo method at 9.4 T using two contrast agents: a clinically approved Gd chelate, Multihance® (gadobenate dimeglumine), and a novel experimental liposomal Gd agent. A Dynamic Contrast Enhancement (DCE) protocol was used to capture the dynamics of contrast entry and distribution in the placenta, and clearance from circulation. A blinded clinical radiologist evaluated both sets of images. A reference region model was used to measure the placental flow and physiological parameters; volume transfer constant (Ktrans), efflux rate constant (Kep). The Gd content of excised placentae and fetuses was measured, using inductively coupled plasma mass spectrometry (ICP-MS). […] Image interpretation and diagnostic quality was equivalent between the two contrast agents.
as §2
Animals were anesthetized with 4% Isofluorane/air and transferred supine to the animal-imaging cradle. A 28-gauge catheter was placed in the tail vein. Once transferred to the imaging instrument, isofluorane (2%) was administered continuously via a nose cone. A pressure sensitive pillow was placed on the abdomen and taped in place to monitor respiration. The animal chamber of the imaging probe was maintained at around 30-33° C. The magnet room was maintained at 25-27° C. Heart rate was maintained at steady 50-60 beats-per-minute by adjusting the airflow and isofluorane concentration. MR imaging was performed with Multihance® in 14 mice. Liposomal Gd was used in 9 mice. Two mice were injected with saline as a control for comparison. Contrast agents were diluted to 20 mM and a dose of 0.08 mmol/kg (typically around 100 μL) were prepared for this study. The contrast agent was injected manually by the same operator (3 years of experience with small animals) and at the same rate in each mouse.
as §1
For the DCE-MRI study, baseline images without contrast enhancement were acquired, followed by a series of images acquired over time during and after the arrival of the contrast agent in the tissue of interest. A 3D-spoiled gradient recalled echo (SPGRE) pulse sequence with a fixed flip angle of 16 degrees was used over 175 measurements. Other parameters are described in Appendix A. The time for a single measurement was 9.25 seconds. […]

[3] = Placental and fetal contrast agent concentration and uptake from DCE-MRI data; type: in vivo, mouse
Source text: The image data was used to calculate absolute Gd concentrations using the methods in Appendix A. Contrast agent concentrations estimated from the MRI data are shown in Table 2-2 using Eqs. A4 and A5.
For the DCE-MRI study, baseline images without contrast enhancement were acquired, followed by a series of images acquired over time during and after the arrival of the contrast agent in the tissue of interest. A 3D-spoiled gradient recalled echo (SPGRE) pulse sequence with a fixed flip angle of 16 degrees was used over 175 measurements. Other parameters are described in Appendix A. The time for a single measurement was 9.25 seconds. Two minutes into the experiment, contrast was injected. Total scan time was 26 minutes and 52 seconds. The acquired signal was used to generate a time-intensity curve and the signal was converted pixel-by-pixel into concentration of the injected agent.
MRI data was transferred to an offline workstation and each placental and fetal compartment was segmented as a separate region of interest (ROI) using AMIRA V5.6 software (FEI Visualization Sciences Group, Hillsboro, Oreg.). The segmented regions were transferred to Matlab (Matlab 7.6.0, MathWorks, Natick, Mass., USA) to create a pixel-by-pixel T1(0) map and T1(t) map as described in Appendix A. Two placental zones were identified visually from the signal enhancement pattern: the labyrinth zone characterized by early flow enhancement and a peripheral region (maternal decidua) characterized by late flow enhancement that began after the central labyrinth enhancement peaked. The two zones together constitute the entire placenta.

[4] = test system: pregnant Sprague Dawley rats; assay: DCE-MRI visualization of the retroplacental space; type: in vivo, rat; conditions: 0.15 mmol Gd/kg, 20 minute post-contrast acquisition
Protocol: In the study with the conventional Gd contrast agent, dynamic contrast enhanced MRI (DCE-MRI) was performed using gadoterate meglumine (Gd-DOTA, Dotarem®) to evaluate visualization of the retroplacental space. DCE-MRI was performed using a T1w 2D gradient echo sequence (GRE) sequence with the following scan parameters: TE=3.5 ms, TR=15 ms, FA=25, slice thickness=0.8 or 1.6 mm, NEX=12; temporal resolution=47 s. Four non-contrast, baseline images were acquired followed by bolus intravenous administration of gadoterate meglumine (0.15 mmol Gd/kg). Post-contrast imaging was continued for upto 20 minutes after administration of gadoterate meglumine. In order to directly compare image quality between the two contrast agents, liposomal-Gd contrast agent (0.15 mmol Gd/kg) was administered a minimum of three hours later, allowing clearance of gadoterate meglumine. Post-liposomal-Gd contrast images were acquired using the same DCE-MRI protocol.
Pre-contrast and post-contrast scans were reviewed by a trained maternal-fetal radiologist (˜10 years of experience). T1 weighted GRE images and T2 weighted FSE images were included in the review. […] The visibility of target features in T1w and T2w images were scored by the radiologist on a 3-point scale: 0=not visible, 1=partly visible and 2=clearly visible. […]

[5] = placentae rated by blinded reader, 5-point scale, 9.4 T

| Structure (SMILES) | relaxivity (r1) [1] [s/mM] | Gd concentration in placentae and fetuses versus detection limit ([2]; 45 minutes and 90 minutes post injection, detection limit 0.318 nmol/g tissue) | Placental and fetal Gd concentrations relative to each other ([2]; 45 minutes post-injection) | Placental and fetal Gd concentrations, factor of each other ([2]; 90 minutes post-injection) | transplacental permeation ([2]; MRI images and ICP-MS analyses of placental and fetal tissue) | time of image intensity peak after injection (pregnant Balb/c mice; DCE-MRI) [s] | Number observed with Placenta Visibility 1 (pregnant Balb/c mice; [5]) | Number observed with Placenta Visibility 2 (pregnant Balb/c mice; [5]) | Number observed with Placenta Visibility 3 (pregnant Balb/c mice; [5]) | Number observed with Placenta Visibility 4 (pregnant Balb/c mice; [5]) | Number observed with Placenta Visibility 5 (pregnant Balb/c mice; [5]) | uptake of contrast agent in the fetal compartment ([3]; MRI, liposomal Gd even after 72 hr exposure) | Placental concentration ([3]; gadolinium peak from MRI data, mean, ROI around entire placenta, 0.08 mmol/kg) [µmol/L] | Fetal concentration ([3]; gadolinium peak from MRI data, mean, ROI around fetal sac, 0.08 mmol/kg) [µmol/L] | visualization of the retroplacental space [4] |
| --- | --- | --- | --- | --- | --- | --- | --- | --- | --- | --- | --- | --- | --- | --- | --- |
| CNC[C@H](O)[C@@H](O)[C@H](O)[C@H](O)CO.CNC[C@H](O)[C@@H](O)[C@H](O)[C@H](O)CO.O=C([O-])CN(CCN(CC(=O)[O-])CC(=O)O)CCN(CC(=O)O)C(COCc1ccccc1)C(=O)[O-].[Gd+3] (stereo not drawn) [Multihance, gadobenate dimeglumine] | 3.99 ± 0.52 | above the detection limit | within an order of magnitude of each other | ≤ 2 | avidly permeated the placental barrier | 11 to 15 | 1 | 6 | 25 | 15 | 7 | uptake of contrast agent in the fetal compartment was observed | 0.60 ± 0.51 | 0.027 ± 0.01 | – |
| CNC[C@H](O)[C@@H](O)[C@H](O)[C@H](O)CO.O=C([O-])CN1CCN(CC(=O)[O-])CCN(CC(=O)O)CCN(CC(=O)[O-])CC1.[Gd+3] [gadoterate meglumine] | – | – | – | – | – | – | – | – | – | – | – | – | – | – | no consistent and reproducible visualization of the retroplacental space |
